Measurements as given in US20260184663A1, “INDENE COMPOUNDS, PHARMACEUTICAL COMPOSITIONS THEREOF, AND THEIR THERAPEUTIC APPLICATIONS” (NucMito Pharmaceuticals co. Ltd., priority 2022, published 2026).

Experiments:
Format in all cases: cell-based
[1] = test system: A431 (epidermoid carcinoma); assay: Antiproliferative activity (CCK-8 cell viability), A431; conditions: Homo sapiens, 72 h, read-out: Antiproliferative activity in cancerous cells, A431 (inhibition of cell growth); for inhibition at 3.3 µM: A-431, Compound concentration: 3.3 μM; for inhibition at 10 µM: A-431, Compound concentration: 10 μM; for inhibition at 30 µM: A-431, Compound concentration: 30 μM
In short: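 A431 epidermoid carcinoma cells grown in DMEM with 10% FBS were plated at 2,000-5,000 cells/well in 96-well plates. After attachment they were exposed to compound at 3.3 μM, 10 μM, or 30 μM for 72 h at 37° C. Viability was then assessed by CCK-8 against DMSO vehicle-treated wells.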

[2] = test system: HeLa (cervical cancer); assay: Antiproliferative activity (CCK-8 cell viability), HeLa; conditions: Homo sapiens, 72 h, read-out: Antiproliferative activity in cancerous cells, HELA (inhibition of cell growth); for inhibition at 3.3 µM: Compound concentration: 3.3 μM; for inhibition at 10 µM: Compound concentration: 10 μM; for inhibition at 30 µM: Compound concentration: 30 μM
In short: (§1)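 Cells grown in DMEM (HepG2, SW480), MEM (HeLa) or F-12K (A549), each with 10% FBS, then exposed to compound at 3.3, 10 or 30 μM for 72 h at 37 °C. CCK-8 absorbance at 450 nm; viability expressed as percent of DMSO-treated cells, graded as growth inhibition bands.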

[3] = test system: MDA-MB-231 (breast cancer); assay: Antiproliferative activity (CCK-8 cell viability), MDA-MB-231; conditions: Homo sapiens, 72 h, read-out: Antiproliferative activity in cancerous cells, MDA-MB-231 (inhibition of cell growth); for inhibition at 3.3 µM: Compound concentration: 3.3 μM; for inhibition at 10 µM: Compound concentration: 10 μM; for inhibition at 30 µM: Compound concentration: 30 μM
In short: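 MDA-MB-231 breast cancer cells, grown in DMEM with 10% FBS, were plated in 96-well plates at 2,000-5,000 cells/well. Once attached, they were exposed to compound and incubated at 37° C. for 72 h. Viability was then measured with CCK-8 (10 μL per well, 4 h at 37° C.) by absorbance at 450 nm, relative to DMSO vehicle wells.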

[4] = test system: SW480 (colon cancer); assay: Antiproliferative activity (CCK-8 cell viability), SW480; conditions: Homo sapiens, 72 h, read-out: Antiproliferative activity in cancerous cells, SW480 (inhibition of cell growth); for inhibition at 3.3 µM: Compound concentration: 3.3 μM; for inhibition at 10 µM: Compound concentration: 10 μM; for inhibition at 30 µM: Compound concentration: 30 μM
In short: as §1

[5] = test system: A549 (lung adenocarcinoma); assay: Antiproliferative activity (CCK-8 cell viability), A549; conditions: Homo sapiens, 72 h, read-out: Antiproliferative activity in cancerous cells, A549 (inhibition of cell growth); for inhibition at 3.3 µM: Compound concentration: 3.3 μM; for inhibition at 10 µM: Compound concentration: 10 μM; for inhibition at 30 µM: Compound concentration: 30 μM
In short: as §1

[6] = test system: B16F10 (malignant melanoma); assay: Antiproliferative activity (CCK-8 cell viability), B16F10; conditions: Mus musculus, 72 h, read-out: Antiproliferative activity in cancerous cells, B16F10 (inhibition of cell growth); for inhibition at 3.3 µM: B16-F10, Compound concentration: 3.3 μM; for inhibition at 10 µM: B16-F10, Compound concentration: 10 μM; for inhibition at 30 µM: B16-F10, Compound concentration: 30 μM
In short: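 B16F10 melanoma cells grown in DMEM with 10% FBS were plated in 96-well plates at 2,000-5,000 cells/well. After attachment they were exposed to compound in medium for 72 h at 37° C. CCK-8 solution (10 μL) was then added, and after 4 h at 37° C absorbance was read at 450 nm.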

[7] = test system: HepG2 (liver cancer); assay: Antiproliferative activity (CCK-8 cell viability), HepG2; conditions: Homo sapiens, 72 h, read-out: Antiproliferative activity in cancerous cells, HepG2 (inhibition of cell growth); for inhibition at 3.3 µM: Compound concentration: 3.3 μM; for inhibition at 10 µM: Compound concentration: 10 μM; for inhibition at 30 µM: Compound concentration: 30 μM
In short: as §1

Structure (SMILES): CC1=C(CC(=O)O)c2cc(F)ccc2/C1=C\c1ccc(Oc2ccc(Cl)c(Cl)c2)cc1 [C49, (Z)-2-(1-(4-(3,4-Dichlorophenoxy)benzylidene)-5-fluoro-2-methyl-1H-inden-3-yl)acetic acid]
- inhibition at 3.3 µM [1]: ≥ 50%
- inhibition at 10 µM [1]: ≥ 50%
- inhibition at 3.3 µM [2]: ≥ 50%
- inhibition at 10 µM [2]: ≥ 50%
- inhibition at 3.3 µM [3]: < 30%
- inhibition at 10 µM [3]: ≥ 50%
- inhibition at 3.3 µM [4]: 30 to 50%
- inhibition at 10 µM [4]: ≥ 50%
- inhibition at 3.3 µM [5]: < 30%
- inhibition at 10 µM [5]: ≥ 50%
- inhibition at 3.3 µM [6]: < 30%
- inhibition at 10 µM [6]: ≥ 50%
- inhibition at 3.3 µM [7]: < 30%
- inhibition at 10 µM [7]: ≥ 50%

Structure (SMILES): CC1=C(CC(=O)O)c2cc(F)ccc2/C1=C\c1ccc(Oc2ccc(Cl)cc2)cc1Oc1ccc(Cl)cc1 [C79, (Z)-2-(1-(2,4-Bis(4-chlorophenoxy)benzylidene)-5-fluoro-2-methyl-1H-inden-3-yl)acetic acid]
- inhibition at 3.3 µM [1]: ≥ 50%
- inhibition at 10 µM [1]: ≥ 50%
- inhibition at 3.3 µM [2]: ≥ 50%
- inhibition at 10 µM [2]: ≥ 50%
- inhibition at 3.3 µM [3]: ≥ 50%
- inhibition at 10 µM [3]: ≥ 50%
- inhibition at 3.3 µM [4]: ≥ 50%
- inhibition at 10 µM [4]: ≥ 50%
- inhibition at 3.3 µM [5]: ≥ 50%
- inhibition at 10 µM [5]: ≥ 50%
- inhibition at 3.3 µM [6]: ≥ 50%
- inhibition at 10 µM [6]: ≥ 50%
- inhibition at 3.3 µM [7]: ≥ 50%
- inhibition at 10 µM [7]: ≥ 50%

Structure (SMILES): CC1=C(CC(=O)O)c2cc(F)ccc2/C1=C/c1ccc(Oc2ccc(F)cc2F)cc1 [E17, (E)-2-(1-(4-(2,4-Difluorophenoxy)benzylidene)-5-fluoro-2-methyl-1H-inden-3-yl)acetic acid]
- inhibition at 3.3 µM [1]: < 30%
- inhibition at 10 µM [1]: ≥ 50%
- inhibition at 30 µM [1]: ≥ 50%
- inhibition at 3.3 µM [2]: 30 to 50%
- inhibition at 10 µM [2]: ≥ 50%
- inhibition at 30 µM [2]: ≥ 50%
- inhibition at 3.3 µM [3]: 30 to 50%
- inhibition at 10 µM [3]: ≥ 50%
- inhibition at 30 µM [3]: ≥ 50%
- inhibition at 3.3 µM [4]: < 30%
- inhibition at 10 µM [4]: ≥ 50%
- inhibition at 30 µM [4]: ≥ 50%
- inhibition at 3.3 µM [5]: < 30%
- inhibition at 10 µM [5]: ≥ 50%
- inhibition at 30 µM [5]: ≥ 50%
- inhibition at 3.3 µM [6]: ≥ 50%
- inhibition at 10 µM [6]: ≥ 50%
- inhibition at 30 µM [6]: ≥ 50%
- inhibition at 3.3 µM [7]: ≥ 50%
- inhibition at 10 µM [7]: ≥ 50%
- inhibition at 30 µM [7]: ≥ 50%

Structure (SMILES): CC1=C(CC(=O)O)c2cc(Cl)ccc2/C1=C/c1ccc(Oc2ccc(F)cc2)cc1 [E41, (E)-2-(5-Chloro-1-(4-(4-fluorophenoxy)benzylidene)-2-methyl-1H-inden-3-yl)acetic acid]
- inhibition at 3.3 µM [1]: ≥ 50%
- inhibition at 10 µM [1]: ≥ 50%
- inhibition at 30 µM [1]: ≥ 50%
- inhibition at 3.3 µM [2]: < 30%
- inhibition at 10 µM [2]: ≥ 50%
- inhibition at 30 µM [2]: ≥ 50%
- inhibition at 3.3 µM [3]: < 30%
- inhibition at 10 µM [3]: ≥ 50%
- inhibition at 30 µM [3]: ≥ 50%
- inhibition at 3.3 µM [4]: 30 to 50%
- inhibition at 10 µM [4]: ≥ 50%
- inhibition at 30 µM [4]: ≥ 50%
- inhibition at 3.3 µM [5]: < 30%
- inhibition at 10 µM [5]: 30 to 50%
- inhibition at 30 µM [5]: ≥ 50%
- inhibition at 3.3 µM [6]: < 30%
- inhibition at 10 µM [6]: ≥ 50%
- inhibition at 30 µM [6]: ≥ 50%
- inhibition at 3.3 µM [7]: < 30%
- inhibition at 10 µM [7]: ≥ 50%
- inhibition at 30 µM [7]: ≥ 50%

Structure (SMILES): CCc1ccc2c(c1)C(CC(=O)O)=C(C)/C2=C/c1ccc(COc2ccc(C(F)(F)F)cc2)cc1 [B60, (Z)-2-(5-Ethyl-2-methyl-1-(4-((4-(trifluoromethyl)phenoxy)methyl)benzylidene)-1H-inden-3-yl)acetic acid]
- inhibition at 3.3 µM [1]: ≥ 50%
- inhibition at 10 µM [1]: ≥ 50%
- inhibition at 3.3 µM [2]: 30 to 50%
- inhibition at 10 µM [2]: ≥ 50%
- inhibition at 3.3 µM [3]: < 30%
- inhibition at 10 µM [3]: < 30%
- inhibition at 3.3 µM [4]: < 30%
- inhibition at 10 µM [4]: ≥ 50%
- inhibition at 3.3 µM [5]: 30 to 50%
- inhibition at 10 µM [5]: ≥ 50%
- inhibition at 3.3 µM [6]: 30 to 50%
- inhibition at 10 µM [6]: ≥ 50%
- inhibition at 3.3 µM [7]: ≥ 50%
- inhibition at 10 µM [7]: ≥ 50%

Structure (SMILES): CC1=C(CC(=O)O)c2cc(F)ccc2/C1=C/c1ccc(Oc2ccc(F)cc2Cl)cc1 [E25, (E)-2-(1-(4-(2-Chloro-4-fluorophenoxy)benzylidene)-5-fluoro-2-methyl-1H-inden-3-yl)acetic acid]
- inhibition at 3.3 µM [1]: ≥ 50%
- inhibition at 10 µM [1]: ≥ 50%
- inhibition at 30 µM [1]: ≥ 50%
- inhibition at 3.3 µM [2]: 30 to 50%
- inhibition at 10 µM [2]: ≥ 50%
- inhibition at 30 µM [2]: ≥ 50%
- inhibition at 3.3 µM [3]: < 30%
- inhibition at 10 µM [3]: < 30%
- inhibition at 30 µM [3]: ≥ 50%
- inhibition at 3.3 µM [4]: ≥ 50%
- inhibition at 10 µM [4]: ≥ 50%
- inhibition at 30 µM [4]: ≥ 50%
- inhibition at 3.3 µM [5]: < 30%
- inhibition at 10 µM [5]: < 30%
- inhibition at 30 µM [5]: ≥ 50%
- inhibition at 3.3 µM [6]: 30 to 50%
- inhibition at 10 µM [6]: 30 to 50%
- inhibition at 30 µM [6]: ≥ 50%
- inhibition at 3.3 µM [7]: < 30%
- inhibition at 10 µM [7]: ≥ 50%
- inhibition at 30 µM [7]: ≥ 50%

Structure (SMILES): CC1=C(CC(=O)O)c2cc(F)ccc2/C1=C\c1ccc(COCc2ccccc2)cc1 [B104, (Z)-2-(1-(4-((Benzyloxy)methyl)benzylidene)-5-fluoro-2-methyl-1H-inden-3-yl)-acetic acid]
- inhibition at 3.3 µM [1]: ≥ 50%
- inhibition at 10 µM [1]: ≥ 50%
- inhibition at 3.3 µM [2]: ≥ 50%
- inhibition at 10 µM [2]: ≥ 50%
- inhibition at 3.3 µM [3]: 30 to 50%
- inhibition at 10 µM [3]: ≥ 50%
- inhibition at 3.3 µM [4]: ≥ 50%
- inhibition at 10 µM [4]: ≥ 50%
- inhibition at 3.3 µM [5]: 30 to 50%
- inhibition at 10 µM [5]: 30 to 50%
- inhibition at 3.3 µM [6]: ≥ 50%
- inhibition at 10 µM [6]: ≥ 50%
- inhibition at 3.3 µM [7]: < 30%
- inhibition at 10 µM [7]: ≥ 50%

Structure (SMILES): CC1=C(CC(=O)O)c2cc(F)ccc2/C1=C\c1ccc(Oc2ccc(Cl)cc2)cc1Cl [C59, (Z)-2-(1-(2-Chloro-4-(4-chlorophenoxy)benzylidene)-5-fluoro-2-methyl-1H-inden-3-yl)acetic acid]
- inhibition at 3.3 µM [1]: ≥ 50%
- inhibition at 10 µM [1]: ≥ 50%
- inhibition at 3.3 µM [2]: ≥ 50%
- inhibition at 10 µM [2]: ≥ 50%
- inhibition at 3.3 µM [3]: < 30%
- inhibition at 10 µM [3]: < 30%
- inhibition at 3.3 µM [4]: < 30%
- inhibition at 10 µM [4]: ≥ 50%
- inhibition at 3.3 µM [5]: 30 to 50%
- inhibition at 10 µM [5]: ≥ 50%
- inhibition at 3.3 µM [6]: < 30%
- inhibition at 10 µM [6]: ≥ 50%
- inhibition at 3.3 µM [7]: ≥ 50%
- inhibition at 10 µM [7]: ≥ 50%

Structure (SMILES): CCc1ccc2c(c1)C(CC(=O)O)=C(C)/C2=C/c1ccc(COc2ccc(F)cc2)cc1 [B52, (Z)-2-(5-Ethyl-1-(4-((4-fluorophenoxy)methyl)benzylidene)-2-methyl-1H-inden-3-yl)acetic acid]
- inhibition at 3.3 µM [1]: 30 to 50%
- inhibition at 10 µM [1]: ≥ 50%
- inhibition at 3.3 µM [2]: 30 to 50%
- inhibition at 10 µM [2]: ≥ 50%
- inhibition at 3.3 µM [3]: ≥ 50%
- inhibition at 10 µM [3]: ≥ 50%
- inhibition at 3.3 µM [4]: 30 to 50%
- inhibition at 10 µM [4]: ≥ 50%
- inhibition at 3.3 µM [5]: 30 to 50%
- inhibition at 10 µM [5]: ≥ 50%
- inhibition at 3.3 µM [6]: ≥ 50%
- inhibition at 10 µM [6]: ≥ 50%
- inhibition at 3.3 µM [7]: < 30%
- inhibition at 10 µM [7]: ≥ 50%
